Patent US20050049278A1, “Benzo[1,3]dioxole compounds, pharmaceutical compositions thereof, and processes of making and using the same” (priority 2003, published 2005)

Key:
[1] = tested on: NCl/ADR (breast adenocarcinoma); assay: Cell viability (cell proliferation assay), NCl/ADR; assay type: cell-based; conditions: 48 to 72 hr exposure
Method: (§1) HEK293 cells were seeded into each well of a 96-well plate (5000 cells/well) and incubated overnight to allow the cells to attach. The culture media was removed and replaced with 100 μl of phenol red-free media containing the compounds 5a, 5a,b, and 9a at various concentrations. The cells were allowed to grow in the presence of the compounds for 48 hrs. At the end of the treatment, 20 μl of CellTiter 96 Aqueous One Solution reagent was added directly into each well, and the cells were incubated at 37° C. for 2 hrs. This reagent converts to a form that absorbs light at 490 nm by living cells. Thus, absorbance at 490 nm is proportional to the number of viable cells. The 490 nm absorbance was measured on a BioRad plate reader. Control wells containing no cells were included in this assay to correct for background absorbance.
(§2) The effect of compound 9a on the viability of cancer cell lines as well as dividing and non-dividing mouse Swiss3T3 cells was studied.
(§3) In particular, the cell proliferation assay, as described in Example 15, was used to test the effect of a 48 to 72 hr exposure of these cell lines to compound 9a at various concentrations.

[2] = tested on: A549 (non-small cell lung carcinoma); assay: Cell viability (cell proliferation assay), A549; assay type: cell-based; conditions: Homo sapiens, 48 to 72 hr exposure
Method: as §1, §2, §3

[3] = tested on: HT29 (colorectal adenocarcinoma); assay: Cell viability (cell proliferation assay), HT29; assay type: cell-based; conditions: Homo sapiens, HT-29, 48 to 72 hr exposure
Method: as §1, §2, §3

[4] = tested on: PC3 (prostate adenocarcinoma); assay: Cell viability (cell proliferation assay), PC3; assay type: cell-based; conditions: 48 to 72 hr exposure
Method: as §1, §2, §3

[5] = tested on: HCT15 (colorectal adenocarcinoma); assay: Cell viability (cell proliferation assay), HCT15; assay type: cell-based; conditions: Homo sapiens, HCT-15, 48 to 72 hr exposure
Method: as §1, §2, §3

[6] = tested on: SW480 (colorectal adenocarcinoma); assay: Cell viability (cell proliferation assay), SW480; assay type: cell-based; conditions: Homo sapiens, 48 to 72 hr exposure
Method: as §1, §2, §3

[7] = tested on: HOP-18 (non-small cell lung carcinoma); assay: Cell viability (cell proliferation assay), HOP-18; assay type: cell-based; conditions: Homo sapiens, 48 to 72 hr exposure
Method: as §1, §2, §3

[8] = tested on: OVCAR-4 (ovarian adenocarcinoma); assay: Cell viability (cell proliferation assay), OVCAR-4; assay type: cell-based; conditions: Homo sapiens, 48 to 72 hr exposure
Method: as §1, §2, §3

[9] = tested on: Swiss 3T3 dividing fibroblast; assay: Cell viability (cell proliferation assay), dividing Swiss 3T3; assay type: cell-based; conditions: Mus musculus, 48 to 72 hr exposure
Method: as §1, §2, §3

[10] = tested on: Swiss 3T3 non-dividing fibroblast; assay: Cell viability (cell proliferation assay), non-dividing Swiss 3T3; assay type: cell-based, mouse
Method: as §1, §2, §3

[11] = tested on: HTS-tubulin (90% tubulin plus 10% microtubule associated proteins); assay: Microtubule polymerization assay (turbidity at 340 nm); assay type: biochemical; conditions: absorbance at 340 nm, 30 minutes, 37° C., FIG. 3
Method: Microtubule polymerization assays were performed to determine if compounds, such as compound 9a, cause G2/M cell cycle arrest by affecting microtubule dynamics. A microtubule polymerization assay was performed that takes advantage of the observation that there is an increase in turbidity that can be measured at 340 nm as tubulin heterodimers polymerize to form microtubules. In brief, HTS-tubulin (90% tubulin plus 10% microtubule associated proteins; Cytoskeleton Inc., Denver, Colo.) was resuspended in G-PEM buffer (80 mM Pipes, pH 6.9; 2 mM MgCl2; 0.5 mM EDTA; 1 mM GTP) to 10 mg/ml. This suspension was clarified by centrifugation for 10 min. at 225,000×g. The supernatant was then diluted with G-PEM buffer to 2 mg/ml and 100 μl of this solution was added to the appropriate number of ½-area wells in a 96-well format (Corning). Each compound (10 μl of a 10× final concentration in 10% DMSO) was added to the wells in duplicate and immediately put into a pre-warmed (37° C.) Spectromax 190 plate reader. The absorbance was read at 340 nm immediately (time=0) and every minute thereafter for 30 minutes.
The tubulin mix was incubated in the presence of paclitaxel (a microtubule stabilizing agent), nocodazole (a microtubule destabilizing agent), vehicle control (DMSO), or varying concentrations of compound 9a (FIG. 3).

`COc1ccc2c(c1N)C(=O)O[C@@H]2[C@H]1c2c(cc3c(c2OC)OCO3)CCN1C` [Compound 9a, 7-amino-6-methoxy-3-(4-methoxy-6-methyl-5,6,7,8-tetrahydro-[1,3]dioxolo[4,5-g]isoquinolin-5-yl)-3H-isobenzofuran-1-one] was tested, and the EC50 [1] was < 50 nM, the EC50 [2] was < 100 nM and the EC50 [3] was < 100 nM. For the same compound, the EC50 [4] was < 100 nM, the EC50 [5] was < 100 nM and the EC50 [6] was < 100 nM. The EC50 [7] was < 100 nM, the EC50 [8] was < 100 nM and the EC50 [9] was < 100 nM. For the same compound, the EC50 ([10]; Mus musculus, Swiss 3T3 non-dividing fibroblast, 48 to 72 hr exposure) was > 50000 nM, the “effect on viability” value ([10]; non-dividing Swiss 3T3 fibroblasts, even at 50 μM) was “no effect was observed” and the “effect on microtubule polymerization” value [11] was “dose-dependent decrease of microtubule polymerization”.
